Here are results for 20 compounds from PMC7670487 (ACS Infectious Diseases, 2020).

A short description of series [1]: Cytotoxicity against mammalian cells (MTT). The conditions noted are these: mouse, NCTC clone 929 fibroblast cells; NCTC clone 929 cells, 48 h, 200–1.56 μM, MTT. The format is cell-based, murine. The method, then:
(§1) Macrophages were collected from the peritoneal cavity of BALB/c mice by washing them with RPMI-1640 medium supplemented with 10% fetal calf serum and were maintained at 37 °C in a 5% CO2 humidified incubator. Trypomastigotes of T. cruzi (Y strain) were maintained in Rhesus monkey kidney cells (LLC-MK2, ATCC CCL 7) and cultivated in RPMI-1640 medium supplemented with 2% fetal calf serum at 37 °C in a 5% CO2 humidified incubator. Murine conjunctive cells (NCTC clone 929, ATCC) were maintained in RPMI-1640 supplemented with 10% FBS at 37 °C in a 5% CO2 humidified incubator.[20] […] The selectivity index (SI) was determined as CC50/IC50 against amastigotes. IC50 and CC50 values were calculated using a sigmoid dose–response curve in GraphPad Prism 6.0 software (GraphPad Software, San Diego, CA, USA). The assays were repeated at least twice, and the samples were tested in duplicate.

Series [2] deals with Fibroblast NCTC cells (clone 929). Put plainly: Cytotoxicity against mammalian cells (MTT). It counts as cell-based, murine. The settings on record: for SI (selectivity index): ratio between CC50 in NCTC cells and IC50 in intracellular amastigotes; for CC50 (μM) ± SD: NCTC clone 929 cells, 48 h, 200–1.56 μM, MTT. The method, then:
as §1

The test system of series [3] is T. cruzi amastigotes. The series is described as follows: Antiamastigote assay (intracellular, infected peritoneal macrophages, infection index by microscopy). The format is cell-based, Trypanosoma cruzi. The settings on record: for IC50: Trypanosoma cruzi, Peritoneal macrophage, in Mus musculus, intracellular amastigotes in BALB/c peritoneal macrophages, 48 h, 30–0.23 μM, read-out: IC50 (μM) ± SD amastigote. As to the method: Our attention next turned to an evaluation of the activity of the various natural product analogues against T. cruzi amastigotes (evaluated microscopically using an ex vivo intracellular model with mice macrophages)[20] and trypomastigotes (resazurin in vitro assay).[30] […] Macrophages were collected from the peritoneal cavity of BALB/c mice by washing them with RPMI-1640 medium supplemented with 10% fetal calf serum and were maintained at 37 °C in a 5% CO2 humidified incubator. Trypomastigotes of T. cruzi (Y strain) were maintained in Rhesus monkey kidney cells (LLC-MK2, ATCC CCL 7) and cultivated in RPMI-1640 medium supplemented with 2% fetal calf serum at 37 °C in a 5% CO2 humidified incubator. Murine conjunctive cells (NCTC clone 929, ATCC) were maintained in RPMI-1640 supplemented with 10% FBS at 37 °C in a 5% CO2 humidified incubator.[20] Peritoneal macrophages (1 × 10^5 cells/well), collected from the peritoneal cavity of the BALB/c mice, were seeded in 16-well chamber slides (NUNC, Thermo Fisher Scientific) and infected with trypomastigotes (10:1, parasite/macrophage ratio). After 2 h, the compounds (in concentrations of 30–0.23 μM) were incubated with infected macrophages for 48 h at 37 °C in a 5% CO2 humidified incubator. The slides were fixed with MeOH, stained with Giemsa, and observed under a light microscope (EVOS M5000, Termo, USA) with digital image equipment. […] IC50 and CC50 values were calculated using a sigmoid dose–response curve in GraphPad Prism 6.0 software (GraphPad Software, San Diego, CA, USA). The assays were repeated at least twice, and the samples were tested in duplicate.

Series [4] relates to T. cruzi (Y strain) trypomastigotes. The series is described as follows: Antitrypomastigote assay (resazurin viability). It counts as cell-based. The settings on record: Trypanosoma cruzi, LLC-MK2-derived trypomastigotes, 24 h incubation, up to 100 μM, read-out: IC50 (μM) ± SD trypomastigote. As to the method: Our attention next turned to an evaluation of the activity of the various natural product analogues against T. cruzi amastigotes (evaluated microscopically using an ex vivo intracellular model with mice macrophages)[20] and trypomastigotes (resazurin in vitro assay).[30] […] Macrophages were collected from the peritoneal cavity of BALB/c mice by washing them with RPMI-1640 medium supplemented with 10% fetal calf serum and were maintained at 37 °C in a 5% CO2 humidified incubator. Trypomastigotes of T. cruzi (Y strain) were maintained in Rhesus monkey kidney cells (LLC-MK2, ATCC CCL 7) and cultivated in RPMI-1640 medium supplemented with 2% fetal calf serum at 37 °C in a 5% CO2 humidified incubator. Murine conjunctive cells (NCTC clone 929, ATCC) were maintained in RPMI-1640 supplemented with 10% FBS at 37 °C in a 5% CO2 humidified incubator.[20] LLC-MK2-derived trypomastigotes were seeded (1 × 10^6 cells/well) in 96-well plates and incubated with the compounds serially diluted 2-fold (up to 100 μM) for 24 h in RPMI 1640 medium at 37 °C in a 5% CO2 humidified incubator. Subsequently, resazurin (0.011% in PBS) was added for 24 h to check the parasite viability.[30] The optical density was determined in the FilterMax F5 (Molecular Devices) at 570 nm. Benznidazole was used as the standard. IC50 and CC50 values were calculated using a sigmoid dose–response curve in GraphPad Prism 6.0 software (GraphPad Software, San Diego, CA, USA). The assays were repeated at least twice, and the samples were tested in duplicate.
Background: The colour change of resazurin is a common sign of viable cells or microbes.

For series [5], the system named is T. cruzi amastigotes. The settings on record: T. cruzi intracellular amastigotes; read-out: IC50 (μM) ± SD amastigote; cited from earlier work.
Series [6] relates to Fibroblast NCTC cells (clone 929). The conditions noted are these: cited from earlier work.

Broadly, the CC50 is the concentration at which the toxic effect on the cells reaches its halfway point. As a reminder, the IC50 is the point on the concentration scale where inhibition reaches its midpoint.

Where two headings read alike, the source gives them in different places.

The compound `C=CCc1ccc(Oc2cc(CC=C)cc(OC)c2OCOC)c(OC)c1` [Compound 5] returned a CC50 at 48 h in series [1] of over 200 µM. For the same compound, the “SI (selectivity index)” value in series [2] is listed as over 8.2. The results for the IC50 in series [3] and in series [4] were 24.4 ± 10.3 µM and 6.5 ± 4.9 µM, respectively.

On to `C=CCc1ccc(Oc2cc(CC=C)cc(OC)c2OCc2ccc(OC)cc2)c(OC)c1` [Compound 6], for which, in series [1], the 50% cytotoxic concentration (CC50) at 48 h is over 200 µM. Also, the “SI (selectivity index)” value in series [2] was over 50. The half-inhibitory concentration (IC50) in series [3] is 4 ± 1.4 µM. For the same compound, the “fold more potent than the natural product 1 against the amastigotes” value in series [3] (relative to compound 1, amastigote IC50) is reported as “approximately 20 fold”.

Take `CCCc1ccc(Oc2cc(CCC)cc(OC)c2OC)c(OC)c1` [Compound 9]: in series [5], the IC50 is 13.3 ± 1.2 µM. Also, the cytotoxic concentration (CC50) in series [6] (NCTC cells) was over 200 µM. Moreover, the “SI (selectivity index)” value in series [6] (ratio between CC50 in NCTC cells and IC50 in intracellular amastigotes) is listed as over 15.0.

`CCCc1ccc(Oc2cc(CCC)cc(OC)c2OCc2ccc(OC)cc2)c(OC)c1` [Compound 10]: the CC50 at 48 h in series [1] was over 200 µM. Moreover, in series [2], the “SI (selectivity index)” value is over 36.4. Also, the IC50 in series [3] was 5.5 ± 3.5 µM.

`C=CCc1cc(OC)c(OC)c(Oc2ccc(CCC)cc2OC)c1` [Compound 11] yielded a CC50 at 48 h in series [1] of over 200 µM. Also, the “SI (selectivity index)” value in series [2] was over 17.1. The IC50 worked out at 11.7 ± 7 µM in series [3] and 21.9 ± 6.1 µM in series [4].

In turn, `C=CCc1cc(OC)c(OCc2ccc(OC)cc2)c(Oc2ccc(CCC)cc2OC)c1` [Compound 12] came in with a CC50 at 48 h in series [1] of over 200 µM. Also, the “SI (selectivity index)” value in series [2] was over 23.3. Also, the IC50 in series [3] was found to be 8.6 ± 2.1 µM.

In the case of `C=CCc1cc(OC)c(O)c(Oc2ccc(CCC)cc2OC)c1` [Compound 13], the cytotoxic concentration (CC50) at 48 h in series [1] worked out at 42 ± 3.8 µM. Also, in series [2], the “CC50 (μM) ± SD” value was “significant mammalian toxicity” and the “SI (selectivity index)” value amounted to 2.5. Moreover, the half-inhibitory concentration (IC50) in series [3] stood at 16.6 ± 1 µM. The IC50 in series [4] came out at 7.6 ± 1.9 µM.

Take `C=CCc1ccc(Oc2cc(CC=C)cc(OC)c2OCc2ccc(OC)cc2)cc1` [Compound 14]: the CC50 at 48 h in series [1] was over 200 µM. For the same compound, in series [2], the “SI (selectivity index)” value was over 18.2. In addition, the IC50 in series [3] was 11 ± 2.3 µM.

As to `C=CCc1ccc(Oc2cc(CC=C)cc(OC)c2O)cc1` [Compound 15, 3-methylobovatol], half-maximal cytotoxicity in series [1] (CC50 at 48 h) was put at 123 ± 9.4 µM. Further, the “SI (selectivity index)” value in series [2] stood at 5.5. Further, the results for the concentration for half-maximal inhibition (IC50) in series [3] and in series [4] were 22.5 ± 18.8 µM and 4.6 ± 3 µM, respectively.

In series [1], `C=CCc1cc(OC)c(OC)c(Oc2ccccc2OC)c1` [Compound 16] gave a CC50 at 48 h of over 200 µM. In addition, the IC50 in series [4] turned out to be 20.3 ± 0.4 µM.

As to `C=CCc1cc(OC)c(OCc2ccc(OC)cc2)c(Oc2ccccc2OC)c1` [Compound 17], the 50% cytotoxic concentration (CC50) at 48 h in series [1] was over 200 µM.

Consider `C=CCc1ccc(Oc2cc(CCC)cc(OC)c2OCc2ccc(OC)cc2)c(OC)c1` [Compound 18], for which the CC50 at 48 h in series [1] is over 200 µM. In series [2], the “SI (selectivity index)” value is reported as over 14.9. Further, the IC50 in series [3] worked out at 13.4 ± 5.4 µM.

`C=CCc1ccc(Oc2cc(CCC)cc(OC)c2O)c(OC)c1` [Compound 19] returned a 50% cytotoxic concentration (CC50) at 48 h in series [1] of 14.2 ± 0.1 µM. Further, the “CC50 (μM) ± SD” value in series [2] is on record as “significant mammalian toxicity”. In addition, the “SI (selectivity index)” value in series [2] is given as 1.3. Further, the 50% inhibitory concentration (IC50) in series [3] is 10.5 ± 8.3 µM; in series [4], 4.6 ± 3.8 µM.

`C=CCc1ccc(Oc2cccc(OC)c2OC)c(OC)c1` [Compound 20] returned a CC50 at 48 h in series [1] of over 200 µM. Moreover, the “SI (selectivity index)” value in series [2] was over 7.8. For the same compound, the half-maximal inhibitory concentration (IC50) worked out at 25.7 ± 12.2 µM in series [3] and 63.1 ± 6.2 µM in series [4].

Turning to `C=CCc1ccc(Oc2cccc(OC)c2OCc2ccc(OC)cc2)c(OC)c1` [Compound 21], the 50% cytotoxic concentration (CC50) at 48 h in series [1] was over 200 µM.

For `C=CCOc1c(OC)cccc1Oc1ccc(CC=C)cc1OC` [Compound 22], the cytotoxic concentration (CC50) at 48 h in series [1] was over 200 µM.

Take `C=CCc1ccc(O)c(Oc2ccc(CC=C)cc2OC)c1` [Compound 23]: in series [1], the CC50 at 48 h was 129 ± 5.2 µM. Moreover, in series [2], the “SI (selectivity index)” value was determined as 16.7. In addition, the half-inhibitory concentration (IC50) in series [3] is 7.7 ± 1.3 µM; in series [4], 2.5 ± 1.3 µM.

`C=CCc1ccc(Oc2cc(CC=C)ccc2OCc2ccc(OC)cc2)c(OC)c1` [Compound 24] showed a CC50 at 48 h in series [1] of over 200 µM. Moreover, in series [2], the “SI (selectivity index)” value is over 17.2. In addition, the IC50 in series [3] was 11.6 ± 8.4 µM.

In turn, `C=CCc1cc(OC)cc(Oc2ccc(CC=C)cc2OC)c1` [Compound 25] yielded a 50% cytotoxic concentration (CC50) at 48 h in series [1] of over 200 µM. Besides, the “SI (selectivity index)” value in series [2] was over 18.3. Further, the IC50 in series [3] worked out at 10.9 ± 6.5 µM.

`O=C(Cn1ccnc1[N+](=O)[O-])NCc1ccccc1` [benznidazole, reference compound]: the CC50 at 48 h in series [1] is 191 ± 13.4 µM. Moreover, the “SI (selectivity index)” value in series [2] is 38.1. Besides, the IC50 amounted to 5 ± 1.5 µM in series [3] and 17.7 ± 1.9 µM in series [4].
